Results: patent publication US10111431B2, “Application of biofilm formation inhibiting compounds enhances control of citrus canker” (priority 2013, dated 2018)
Read-outs that look alike come from different tables or passages of the source.

Legend:
[1] = test system: Xac strain 306 biofilm formation; assay: Biofilm formation on citrus abaxial leaf surfaces; assay type: cell-based, Xanthomonas citri subsp. citri; settings: 10 mM D-leucine, 100 μg/mL IAN; 28° C., 24 h, crystal violet
Protocol: To gain further evidence of the effect of selected compounds on biofilm formation, biofilm formation in glass tubes and on leaf surfaces was examined as described previously (Li and Wang, 2012). Briefly, the standardized overnight culture of Xac 306 (OD600=1.0) were diluted 1:10 in fresh NB containing 1.0% glucose and the selected compound. For biofilm formation assay in glass tubes (Fischer Scientific, Pittsburgh, Pa.), 1 ml of the diluted bacterial suspension was transferred into each sterilized borosilicate glass tube and incubated at 28° C. without shaking for 48 h. The planktonic growth was then discarded and the tubes were gently washed three times with SDW. The biofilm formed on the tubes was visualized by staining with 0.1% CV. The stain remaining in cells on glass tubes was dissolved in 95% ethanol and quantified by measuring the optical density at 590 nm. For biofilm formation assay on leaf surfaces, 20 μl of the diluted bacterial suspension was dropped onto the abaxial surface of citrus leaves. The leaves were kept in a humidified chamber at 28° C. for 24 h without shaking. The biofilm formed on the leaf surfaces was visualized by staining with 0.1% CV. The biofilm assays were repeated three times with four replicates each time.

[2] = test system: X. citri subsp. citri strain 306; assay: Determination of minimum inhibitory concentrations (MICs) in NB medium, 96-well plate; assay type: cell-based, Xanthomonas citri subsp. citri; settings: Xanthomonas citri, 48 h
Protocol: Xac strain 306 was grown in NB at 28° C. with shaking at 200 rpm for 7 h. The cultures were standardized to an OD600 of 0.03 (5×10^7 colony forming unit (CFU)/mL) in NB and then aliquoted into wells of a 96-well plate, 190 μL per well. The initial test concentrations of the compounds were diluted (1:20) in the culture (10 μl of compound in 190 μl of culture) and incubated at 28° C. under stationary conditions. The cultures were monitored at 24 and 48 h at OD600, and the lowest concentration resulting in no growth after 48 h compared to the control samples was defined as the MIC for Xac strain 306. All determinations were conducted in eight replicate wells and repeated three times.

[3] = test system: Xac 306 biofilm cells; assay: Resistance of Xac biofilm cells to copper, cell viability assay in glass tubes; assay type: cell-based, Xanthomonas citri subsp. citri; settings: for susceptibility of biofilms to CuSO4 relative to untreated control: 10 mM D-leucine, 100 μg/mL IAN; for cell viability of Xac biofilms exposed to CuSO4: CuSO4 1.0 mM plus biofilm inhibitor; for viable cells in biofilms: CuSO4 (1.0 mM) plus D-leucine 10.0 mM and/or IAN 100 μg/ml, 24 h
Protocol: The level of copper resistance of biofilms was evaluated using a cell viability assays. Briefly, Xac biofilms were prepared using NB with stationary incubation in glass tubes as described above. After 48 h-incubation, the cultures were removed and bacterial cells attached to the tubes were gently washed three times with SDW. One milliliter of fresh NB with CuSO4 (1.0 mM), D-leucine (10 mM) or IAN (100 μg/mL), or a combination of these compounds was added to each tube. NB alone was used as control. Tubes were kept at room temperature for 24 h and shaken vigorously for 5 min. The suspensions were diluted in 10-fold series, and 10 μL of each dilution spotted in triplicate on NA plate. Plates were incubated at 28° C. for 48 to 72 h prior to assessing bacterial growth. Colonies that grew near the dilution end-point were counted and bacterial populations in the initial suspensions prior to dilution were calculated. Each treatment compromises four replicates and the experiment repeated three times.

[4] = test system: Xac 306 on grapefruit leaves; assay: Plant test in greenhouse, spray inoculation of grapefruit leaves; assay type: in vivo, Xanthomonas citri subsp. citri; settings: for level of canker lesions on sprayed leaves / canker symptom development on grapefruit leaves (lesion numbers): D-leucine 10 mM, IAN 100 μg/mL; for level of canker lesions on sprayed leaves: CuSO4 100 μg/mL; for canker symptom development on grapefruit leaves: applied after (6 h) the pathogen inoculation; for canker symptom development on grapefruit leaves (lesion numbers): applied along with or prior to (6 h) pathogen inoculation; for log reduction in the number of CFU compared to untreated control: grapefruit leaves, 7 to 28 days after inoculation
Protocol: The effect of selected biofilm inhibitors on Xac infection/virulence-was investigated using 20-week-old potted grapefruit (Citrus paradise cv. Duncan grapefruit) plants in a quarantine greenhouse at the Citrus Research and Education Center, Lake Alfred, Fla. Copper (CuSO4, 100 μg/mL), D-leucine (10 mM), IAN (100 μg/mL) and a combination of these compounds were individually prepared in 100 ml of SDW. Bacterial inoculum was prepared by growing Xac 306 on NA plates at 28° C. for 48 h, suspending in SDW, adjusting concentration to approximately OD600=0.3 (5×10^8 CFU/mL). The inoculation was performed by a spray method as described previously (Li and Wang, 2012) with modifications. Briefly, the abaxial surfaces of fully expanded, immature leaves of each plant were sprayed with the following treatments: SDW, Xac 306, and Xac 306 combined with CuSO4 (100 μg/mL), D-leucine (10 mM), IAN (100 μg/mL), or a combination of these compounds. Silwett-L77 (silicone-polyether copolymer, Fisher) was added to each treatment at a 0.03% (V/V) final concentration. After inoculation, the plants were covered with plastic bags for 24 h to maintain a high (>90%) relative humidity and then kept in a greenhouse (approximately 60% relative humidity) for symptom development. All inoculations included a minimum of three immature leaves at a similar developmental stage from each plant, and each treatment comprised four plants. The experiments were repeated three times independently. SDW was applied as a negative control, and Xac306 mixed with SDW as positive control. To determine whether the timing of application of biofilm inhibitors in relation to Xac306 affected canker symptom suppression, the biofilm inhibitors were inoculated on leaves 6 h prior to or after inoculation with Xac306.
For bacterial population assays, the leaves of grapefruit plants were inoculated as described above. Two leaf discs randomly selected from each of three inoculated leaves were cut with a cork borer (0.8 cm in diameter) and then ground in 1 mL of SDW. The suspensions were serially diluted and plated on NA plates containing rifamycin. After incubation at 28° C. for 48 h, bacterial colonies were counted and the number of CFU per square centimeter of leaf tissue was calculated. The assays were repeated three times independently.

[5] = test system: X. citri subsp. citri on citrus fruit; assay: Detached immature grapefruit fruit spray inoculation; assay type: in vivo, Xanthomonas citri subsp. citri; settings: for decrease in CFU per square centimeter of fruit tissue compared with untreated control / canker symptom development on fruit surface (lesion numbers): D-leucine 10 mM, IAN 100 μg/ml; for canker symptom development on fruit surface (lesion numbers): applied along with pathogen, preliminary study; for log reduction in the number of CFU per square centimeter: fruit, 11 days after inoculation

Question: `CC(C)C[C@@H](N)C(=O)O` [D-leucine] was tested. Which “biofilm formation on citrus leaf surfaces” value [1] did it give?
Answer: declined biofilm formation

Question: And the MIC [2]?
Answer: 16 mM

Question: And the “susceptibility of biofilms to CuSO4 relative to untreated control” value [3]?
Answer: about 10 times

Question: And the “cell viability of Xac biofilms exposed to CuSO4” value [3]?
Answer: significantly reduced

Question: And the “viable cells in biofilms” value [3]?
Answer: 1.1×10^6 CFU/mL

Question: And the “level of canker lesions on sprayed leaves” value [4]?
Answer: less than that sprayed with the pathogen alone

Question: And the “canker symptom development on grapefruit leaves” value [4]?
Answer: did not affect the development of canker symptoms

Question: What about the “canker symptom development on grapefruit leaves (lesion numbers)” value [4] of the same compound?
Answer: able to reduce canker symptom development

Question: What about the “log reduction in the number of CFU compared to untreated control” value [4] of the same compound?
Answer: ~1.0 log

Question: What about the “decrease in CFU per square centimeter of fruit tissue compared with untreated control” value [5] of the same compound?
Answer: approximately 50 fold

Question: And the “canker symptom development on fruit surface (lesion numbers)” value [5]?
Answer: able to reduce canker symptom development

Question: And the “log reduction in the number of CFU per square centimeter” value [5]?
Answer: ~1.6 log

Question: How did the “biofilm formation on citrus leaf surfaces” value [1] turn out when `N#CCc1c[nH]c2ccccc12` [IAN, 3-indolylacetonitrile] was run?
Answer: declined biofilm formation

Question: And the MIC ([2]; compound alone, NB medium, 28° C., stationary, OD600, read-out: MIC)?
Answer: 200 µg/mL

Question: What about the “susceptibility of biofilms to CuSO4 relative to untreated control” value [3] of the same compound?
Answer: about 10 times

Question: And the “cell viability of Xac biofilms exposed to CuSO4” value [3]?
Answer: significantly reduced

Question: What about the “viable cells in biofilms” value [3] of the same compound?
Answer: 4.3×10^6 CFU/mL

Question: What about the “level of canker lesions on sprayed leaves” value [4] of the same compound?
Answer: less than that sprayed with the pathogen alone

Question: What about the “canker symptom development on grapefruit leaves” value [4] of the same compound?
Answer: did not affect the development of canker symptoms

Question: And the “canker symptom development on grapefruit leaves (lesion numbers)” value [4]?
Answer: able to reduce canker symptom development

Question: And the “log reduction in the number of CFU compared to untreated control” value [4]?
Answer: ~1.0 log

Question: What about the “decrease in CFU per square centimeter of fruit tissue compared with untreated control” value [5] of the same compound?
Answer: approximately 50 fold

Question: And the “canker symptom development on fruit surface (lesion numbers)” value [5]?
Answer: able to reduce canker symptom development

Question: And the “log reduction in the number of CFU per square centimeter” value [5]?
Answer: ~1.8 log
